Key:
[1] = biological target: ProfilerPro Kinase Selectivity Assay Kit kinases (Homo sapiens, UniProt O00141); assay type: biochemical; conditions: SGK1; 1 μM compound concentration
Protocol: (§1) Compounds were profiled using a LabChip® EZ Reader II platform and a ProfilerPro Kinase Selectivity Assay Kit (Caliper Lifesciences Inc., Hopkinton, Mass.). Compounds were tested at a concentration of 1 M in duplicate, with mean data reported as percent of control (POC).

[2] = biological target: ProfilerPro Kinase Selectivity Assay Kit kinases (Homo sapiens, UniProt O14965); assay type: biochemical; conditions: AURORA A; 1 μM compound concentration
Protocol: as §1

[3] = biological target: ProfilerPro Kinase Selectivity Assay Kit kinases (Homo sapiens, UniProt O75116); assay type: biochemical; conditions: ROCK2; 1 μM compound concentration
Protocol: as §1

[4] = biological target: ProfilerPro Kinase Selectivity Assay Kit kinases (Homo sapiens, UniProt O75582); assay type: biochemical; conditions: MSK1; 1 μM compound concentration
Protocol: as §1

[5] = biological target: ProfilerPro Kinase Selectivity Assay Kit kinases (Homo sapiens, UniProt O95819); assay type: biochemical; conditions: HGK; 1 μM compound concentration
Protocol: as §1

[6] = biological target: ProfilerPro Kinase Selectivity Assay Kit kinases (Homo sapiens, UniProt P00519); assay type: biochemical; conditions: ABL; 1 μM compound concentration
Protocol: as §1

[7] = biological target: ProfilerPro Kinase Selectivity Assay Kit kinases (Homo sapiens, UniProt P04049); assay type: biochemical; conditions: cRAF; 1 μM compound concentration
Protocol: as §1

[8] = biological target: ProfilerPro Kinase Selectivity Assay Kit kinases (Homo sapiens, UniProt P06239); assay type: biochemical; conditions: LCK; 1 μM compound concentration
Protocol: as §1

[9] = biological target: ProfilerPro Kinase Selectivity Assay Kit kinases (Homo sapiens, UniProt P06241); assay type: biochemical; conditions: FYN; 1 μM compound concentration
Protocol: as §1

[10] = biological target: ProfilerPro Kinase Selectivity Assay Kit kinases (Homo sapiens, UniProt P07948); assay type: biochemical; conditions: LYN; 1 μM compound concentration
Protocol: as §1

[11] = biological target: ProfilerPro Kinase Selectivity Assay Kit kinases (Homo sapiens, UniProt P08069); assay type: biochemical; conditions: IGF1R; 1 μM compound concentration
Protocol: as §1

[12] = biological target: ProfilerPro Kinase Selectivity Assay Kit kinases (Homo sapiens, UniProt P11362); assay type: biochemical; conditions: FGFR1; 1 μM compound concentration
Protocol: as §1

[13] = biological target: ProfilerPro Kinase Selectivity Assay Kit kinases (Homo sapiens, UniProt P17612); assay type: biochemical; conditions: PKA alpha; 1 μM compound concentration
Protocol: as §1

[14] = biological target: ProfilerPro Kinase Selectivity Assay Kit kinases (Homo sapiens, UniProt P23443); assay type: biochemical; conditions: p70S6K; 1 μM compound concentration
Protocol: as §1

[15] = biological target: ProfilerPro Kinase Selectivity Assay Kit kinases (Homo sapiens, UniProt P27361); assay type: biochemical; conditions: ERK1; 1 μM compound concentration
Protocol: as §1

[16] = biological target: ProfilerPro Kinase Selectivity Assay Kit kinases (Homo sapiens, UniProt P28482); assay type: biochemical; conditions: ERK2; 1 μM compound concentration
Protocol: as §1

[17] = biological target: ProfilerPro Kinase Selectivity Assay Kit kinases (Homo sapiens, UniProt P35968); assay type: biochemical; conditions: KDR; 1 μM compound concentration
Protocol: as §1

[18] = biological target: ProfilerPro Kinase Selectivity Assay Kit kinases (Homo sapiens, UniProt P36888); assay type: biochemical; conditions: FLT3; 1 μM compound concentration
Protocol: as §1

[19] = biological target: ProfilerPro Kinase Selectivity Assay Kit kinases (Homo sapiens, UniProt P43405); assay type: biochemical; conditions: SYK; 1 μM compound concentration
Protocol: as §1

[20] = biological target: ProfilerPro Kinase Selectivity Assay Kit kinases (Homo sapiens, UniProt P48730); assay type: biochemical; conditions: CK1 delta; 1 μM compound concentration
Protocol: as §1

[21] = biological target: ProfilerPro Kinase Selectivity Assay Kit kinases (Homo sapiens, UniProt P49137); assay type: biochemical; conditions: MAPKAPK2; 1 μM compound concentration
Protocol: as §1

[22] = biological target: ProfilerPro Kinase Selectivity Assay Kit kinases (Homo sapiens, UniProt Q06187); assay type: biochemical; conditions: BTK; 1 μM compound concentration
Protocol: as §1

[23] = biological target: ProfilerPro Kinase Selectivity Assay Kit kinases (Homo sapiens, UniProt Q13177); assay type: biochemical; conditions: PAK2; 1 μM compound concentration
Protocol: as §1

[24] = biological target: ProfilerPro Kinase Selectivity Assay Kit kinases (Homo sapiens, UniProt Q13188); assay type: biochemical; conditions: MST2; 1 μM compound concentration
Protocol: as §1

[25] = biological target: ProfilerPro Kinase Selectivity Assay Kit kinases (Homo sapiens, UniProt Q13627); assay type: biochemical; conditions: DYRK1a; 1 μM compound concentration
Protocol: as §1

[26] = biological target: ProfilerPro Kinase Selectivity Assay Kit kinases (Homo sapiens, UniProt Q13976); assay type: biochemical; conditions: PKGa2; 1 μM compound concentration
Protocol: as §1

[27] = biological target: ProfilerPro Kinase Selectivity Assay Kit kinases (Homo sapiens, UniProt Q16539); assay type: biochemical; conditions: p38 alpha; 1 μM compound concentration
Protocol: as §1

[28] = biological target: ProfilerPro Kinase Selectivity Assay Kit kinases (Homo sapiens, UniProt Q16566); assay type: biochemical; conditions: CAMK4; 1 μM compound concentration
Protocol: as §1

[29] = biological target: ProfilerPro Kinase Selectivity Assay Kit kinases (Homo sapiens, UniProt Q8IW41); assay type: biochemical; conditions: PRAK; 1 μM compound concentration
Protocol: as §1

[30] = test system: ProfilerPro Kinase Selectivity Assay Kit kinases; assay type: biochemical; conditions: 1 μM compound concentration
Protocol: as §1

[31] = biological target: human mutant B-raf (HuBraf V600E) (Homo sapiens (Human), UniProt P15056, V600E); conditions: at 10 μM compound concentration; POC = 100 − percent inhibition
human mutant B-raf (HuBraf V600E), sequence (P15056 whole entry V600E): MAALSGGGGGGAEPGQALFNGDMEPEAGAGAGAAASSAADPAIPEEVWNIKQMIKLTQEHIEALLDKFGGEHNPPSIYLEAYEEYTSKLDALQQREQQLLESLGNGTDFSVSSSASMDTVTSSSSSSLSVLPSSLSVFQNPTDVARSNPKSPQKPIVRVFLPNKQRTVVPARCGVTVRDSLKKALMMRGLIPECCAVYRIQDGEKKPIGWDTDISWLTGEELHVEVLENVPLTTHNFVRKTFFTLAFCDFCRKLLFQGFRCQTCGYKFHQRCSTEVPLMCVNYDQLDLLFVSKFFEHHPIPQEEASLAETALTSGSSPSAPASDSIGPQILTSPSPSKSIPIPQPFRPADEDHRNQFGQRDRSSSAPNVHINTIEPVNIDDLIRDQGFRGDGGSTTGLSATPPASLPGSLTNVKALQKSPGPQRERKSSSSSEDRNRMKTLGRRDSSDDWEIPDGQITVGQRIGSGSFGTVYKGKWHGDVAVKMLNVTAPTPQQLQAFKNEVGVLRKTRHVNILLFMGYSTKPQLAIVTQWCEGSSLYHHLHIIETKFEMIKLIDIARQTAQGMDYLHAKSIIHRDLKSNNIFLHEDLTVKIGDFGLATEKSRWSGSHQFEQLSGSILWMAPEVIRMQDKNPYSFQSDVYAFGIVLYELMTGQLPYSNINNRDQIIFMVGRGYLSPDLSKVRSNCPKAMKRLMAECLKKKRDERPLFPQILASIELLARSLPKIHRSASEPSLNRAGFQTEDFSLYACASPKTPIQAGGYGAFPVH

ProfilerPro Kinase Selectivity Assay Kit kinases (Homo sapiens, UniProt P06239), sequence (P06239 2-509 limits assumed): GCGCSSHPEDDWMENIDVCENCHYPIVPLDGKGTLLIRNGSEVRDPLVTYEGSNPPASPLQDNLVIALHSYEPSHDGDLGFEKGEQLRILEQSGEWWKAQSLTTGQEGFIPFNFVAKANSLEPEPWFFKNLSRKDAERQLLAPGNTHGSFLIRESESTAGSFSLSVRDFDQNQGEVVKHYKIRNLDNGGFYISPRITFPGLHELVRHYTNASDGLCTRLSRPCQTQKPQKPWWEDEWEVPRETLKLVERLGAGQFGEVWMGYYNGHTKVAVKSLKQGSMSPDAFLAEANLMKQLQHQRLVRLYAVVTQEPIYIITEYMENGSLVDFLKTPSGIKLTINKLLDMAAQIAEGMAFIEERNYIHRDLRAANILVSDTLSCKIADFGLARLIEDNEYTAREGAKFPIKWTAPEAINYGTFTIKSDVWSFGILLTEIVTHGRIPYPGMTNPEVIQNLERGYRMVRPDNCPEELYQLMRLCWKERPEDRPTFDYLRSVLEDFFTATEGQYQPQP
ProfilerPro Kinase Selectivity Assay Kit kinases (Homo sapiens, UniProt Q13177), sequence (Q13177 2-524 limits assumed): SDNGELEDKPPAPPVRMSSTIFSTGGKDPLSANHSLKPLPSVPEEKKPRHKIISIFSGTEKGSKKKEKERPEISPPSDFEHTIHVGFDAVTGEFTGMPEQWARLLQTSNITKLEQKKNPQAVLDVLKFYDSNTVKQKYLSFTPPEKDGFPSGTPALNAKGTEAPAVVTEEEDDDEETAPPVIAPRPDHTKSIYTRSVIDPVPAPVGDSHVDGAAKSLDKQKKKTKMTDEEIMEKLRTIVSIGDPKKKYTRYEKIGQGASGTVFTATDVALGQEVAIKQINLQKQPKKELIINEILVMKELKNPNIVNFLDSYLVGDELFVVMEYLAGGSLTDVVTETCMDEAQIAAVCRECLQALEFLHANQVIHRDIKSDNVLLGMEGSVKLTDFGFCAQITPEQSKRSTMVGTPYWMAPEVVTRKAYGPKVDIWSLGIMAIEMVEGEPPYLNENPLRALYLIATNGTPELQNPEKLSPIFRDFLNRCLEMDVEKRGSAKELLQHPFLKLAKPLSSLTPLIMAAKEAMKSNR
ProfilerPro Kinase Selectivity Assay Kit kinases (Homo sapiens, UniProt P07948), sequence (P07948 2-512 limits assumed): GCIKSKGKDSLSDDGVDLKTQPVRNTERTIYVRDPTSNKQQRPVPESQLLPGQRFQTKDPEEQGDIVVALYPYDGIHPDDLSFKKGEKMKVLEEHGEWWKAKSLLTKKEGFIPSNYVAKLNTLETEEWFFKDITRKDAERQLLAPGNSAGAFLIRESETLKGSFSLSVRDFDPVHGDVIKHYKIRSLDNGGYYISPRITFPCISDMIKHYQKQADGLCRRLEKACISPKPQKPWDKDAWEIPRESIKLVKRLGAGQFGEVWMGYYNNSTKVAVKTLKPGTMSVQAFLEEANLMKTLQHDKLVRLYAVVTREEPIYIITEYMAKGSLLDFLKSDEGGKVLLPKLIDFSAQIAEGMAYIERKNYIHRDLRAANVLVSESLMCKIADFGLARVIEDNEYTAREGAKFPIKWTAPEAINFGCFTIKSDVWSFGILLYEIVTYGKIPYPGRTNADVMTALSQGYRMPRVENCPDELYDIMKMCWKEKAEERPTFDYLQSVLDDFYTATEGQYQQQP
ProfilerPro Kinase Selectivity Assay Kit kinases (Homo sapiens, UniProt Q06187), sequence (Q06187 2-659 limits assumed): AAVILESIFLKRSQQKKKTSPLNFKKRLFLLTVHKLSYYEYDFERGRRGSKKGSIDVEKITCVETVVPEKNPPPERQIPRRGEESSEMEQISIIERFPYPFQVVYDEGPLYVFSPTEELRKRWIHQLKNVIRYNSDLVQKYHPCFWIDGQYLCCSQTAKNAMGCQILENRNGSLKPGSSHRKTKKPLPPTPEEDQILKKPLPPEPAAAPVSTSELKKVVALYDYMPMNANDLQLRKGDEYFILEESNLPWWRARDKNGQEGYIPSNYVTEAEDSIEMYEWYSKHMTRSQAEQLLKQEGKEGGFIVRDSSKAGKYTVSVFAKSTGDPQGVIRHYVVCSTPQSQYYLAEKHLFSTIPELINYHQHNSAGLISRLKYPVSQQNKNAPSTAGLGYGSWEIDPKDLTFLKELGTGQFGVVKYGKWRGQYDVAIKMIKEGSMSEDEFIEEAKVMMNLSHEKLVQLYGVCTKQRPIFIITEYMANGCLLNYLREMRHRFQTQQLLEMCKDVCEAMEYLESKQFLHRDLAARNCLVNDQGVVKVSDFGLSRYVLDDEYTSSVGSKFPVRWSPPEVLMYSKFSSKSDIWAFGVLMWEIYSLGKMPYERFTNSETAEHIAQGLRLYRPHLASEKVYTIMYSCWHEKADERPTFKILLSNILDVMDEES
ProfilerPro Kinase Selectivity Assay Kit kinases (Homo sapiens, UniProt Q13976), sequence (Q13976 2-671 limits assumed): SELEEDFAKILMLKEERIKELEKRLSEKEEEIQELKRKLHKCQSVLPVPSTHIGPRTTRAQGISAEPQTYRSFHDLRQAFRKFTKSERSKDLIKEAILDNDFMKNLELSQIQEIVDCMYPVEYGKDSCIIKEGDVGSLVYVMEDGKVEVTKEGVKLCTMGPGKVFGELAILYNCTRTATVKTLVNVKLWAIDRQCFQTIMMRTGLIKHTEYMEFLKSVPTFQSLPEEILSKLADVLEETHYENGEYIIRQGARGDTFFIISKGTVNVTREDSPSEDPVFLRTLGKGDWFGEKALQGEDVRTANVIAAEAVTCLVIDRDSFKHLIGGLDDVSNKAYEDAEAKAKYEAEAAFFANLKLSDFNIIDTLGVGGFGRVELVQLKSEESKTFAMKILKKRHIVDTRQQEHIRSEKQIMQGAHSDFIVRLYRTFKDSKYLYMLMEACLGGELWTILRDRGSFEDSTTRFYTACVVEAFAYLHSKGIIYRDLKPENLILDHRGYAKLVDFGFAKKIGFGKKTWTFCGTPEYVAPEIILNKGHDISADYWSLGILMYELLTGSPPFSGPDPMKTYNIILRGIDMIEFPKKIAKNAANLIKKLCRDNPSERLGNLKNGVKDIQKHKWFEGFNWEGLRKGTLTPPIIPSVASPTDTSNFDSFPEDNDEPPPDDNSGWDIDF
ProfilerPro Kinase Selectivity Assay Kit kinases (Homo sapiens, UniProt P35968), sequence (P35968 20-1356 limits assumed): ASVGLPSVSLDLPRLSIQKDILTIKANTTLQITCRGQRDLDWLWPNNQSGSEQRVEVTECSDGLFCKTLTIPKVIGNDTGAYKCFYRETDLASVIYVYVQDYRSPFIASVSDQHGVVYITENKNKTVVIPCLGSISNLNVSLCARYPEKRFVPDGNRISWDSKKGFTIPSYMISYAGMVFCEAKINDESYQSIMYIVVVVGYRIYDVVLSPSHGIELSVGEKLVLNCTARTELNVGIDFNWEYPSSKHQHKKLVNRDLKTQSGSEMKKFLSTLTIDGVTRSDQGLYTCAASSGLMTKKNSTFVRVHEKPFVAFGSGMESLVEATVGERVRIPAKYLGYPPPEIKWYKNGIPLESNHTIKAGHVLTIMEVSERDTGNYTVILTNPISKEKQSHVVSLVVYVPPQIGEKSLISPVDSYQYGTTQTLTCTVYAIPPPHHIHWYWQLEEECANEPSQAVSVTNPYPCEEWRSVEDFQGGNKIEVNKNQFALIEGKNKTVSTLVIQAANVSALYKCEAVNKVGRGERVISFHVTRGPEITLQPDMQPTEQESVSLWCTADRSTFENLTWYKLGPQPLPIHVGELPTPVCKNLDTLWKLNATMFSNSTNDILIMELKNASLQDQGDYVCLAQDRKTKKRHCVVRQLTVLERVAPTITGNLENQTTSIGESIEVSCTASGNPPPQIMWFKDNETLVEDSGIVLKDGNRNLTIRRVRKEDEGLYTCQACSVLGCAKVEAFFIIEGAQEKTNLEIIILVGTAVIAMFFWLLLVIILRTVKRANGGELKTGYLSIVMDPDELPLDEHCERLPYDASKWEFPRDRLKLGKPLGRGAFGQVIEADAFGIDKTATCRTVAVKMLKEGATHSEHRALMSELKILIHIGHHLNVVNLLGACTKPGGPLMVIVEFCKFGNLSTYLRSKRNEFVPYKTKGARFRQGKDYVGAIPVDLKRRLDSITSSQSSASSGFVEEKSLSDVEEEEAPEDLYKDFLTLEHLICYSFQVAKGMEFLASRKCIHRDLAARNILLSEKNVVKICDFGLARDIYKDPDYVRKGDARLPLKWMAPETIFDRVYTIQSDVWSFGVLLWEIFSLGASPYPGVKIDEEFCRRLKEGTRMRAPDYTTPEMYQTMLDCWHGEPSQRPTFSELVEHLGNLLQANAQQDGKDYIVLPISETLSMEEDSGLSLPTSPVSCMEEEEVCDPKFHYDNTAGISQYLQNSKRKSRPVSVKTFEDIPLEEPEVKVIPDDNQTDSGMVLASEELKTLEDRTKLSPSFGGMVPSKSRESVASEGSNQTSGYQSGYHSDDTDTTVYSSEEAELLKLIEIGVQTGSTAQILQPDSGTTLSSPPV

Row | Compound | POC (Percent of control) SGK1 [1] | POC (Percent of control) AURORA A [2] | POC (Percent of control) ROCK2 [3] | POC (Percent of control) MSK1 [4] | POC (Percent of control) HGK [5] | POC (Percent of control) ABL [6] | POC (Percent of control) cRAF [7] | POC (Percent of control) LCK [8] | POC (Percent of control) FYN [9] | POC (Percent of control) LYN [10] | POC (Percent of control) IGF1R [11] | POC (Percent of control) FGFR1 [12] | POC (Percent of control) PKA alpha [13] | POC (Percent of control) p70S6K [14] | POC (Percent of control) ERK1 [15] | POC (Percent of control) ERK2 [16] | POC (Percent of control) KDR [17] | POC (Percent of control) FLT3 [18] | POC (Percent of control) SYK [19] | POC (Percent of control) CK1 delta [20] | other results
1 | c1cnc(Nc2cccc3[nH]ccc23)c(-c2ncnc3[nH]cnc23)c1 [Example 19, N-(3-(9H-Purin-6-yl)Pyridin-2-yl)-1H-Indol-4-Amine] | 88 POC | 24 POC | 104 POC | 106 POC | 50 POC | 19 POC | 56 POC | 70 POC | 33 POC | 50 POC | 94 POC | 51 POC | 70 POC | 91 POC | 93 POC | 94 POC | 29 POC | 25 POC | 15 POC | 72 POC | POC (Percent of control) MAPKAPK2 [21]: 90 POC; POC (Percent of control) BTK [22]: 75 POC; POC (Percent of control) PAK2 [23]: 105 POC; POC (Percent of control) MST2 [24]: 82 POC; POC (Percent of control) DYRK1a [25]: 66 POC; POC (Percent of control) PKGa2 [26]: 93 POC; POC (Percent of control) p38 alpha [27]: 86 POC; POC (Percent of control) CAMK4 [28]: 77 POC; POC (Percent of control) PRAK [29]: 84 POC; POC (Percent of control) AMPK [30]: 57 POC; POC (Percent of control) CAMK2 [30]: 84 POC; POC (Percent of control) PKC beta2 [30]: 94 POC; POC (Percent of control) TAK1 [30]: 90 POC; Mutant B-raf HTRF Assay POC Mean n = 2 [31]: 7% of Control (POC)
2 | Cc1nc(N)nc(-c2cccnc2Nc2cccc3[nH]ccc23)n1 [Example 22, N-(3-(4-Amino-6-Methyl-1,3,5-Triazin-2-yl)Pyridin-2-yl)-1H-Indol-4-Amine] | 99 POC | 102 POC | 94 POC | 103 POC | 97 POC | 103 POC | 98 POC | 97 POC | 103 POC | 108 POC | 97 POC | 96 POC | 97 POC | 74 POC | 99 POC | 103 POC | 106 POC | 105 POC | 96 POC | 91 POC | POC (Percent of control) MAPKAPK2 [21]: 98 POC; POC (Percent of control) BTK [22]: 99 POC; POC (Percent of control) PAK2 [23]: 99 POC; POC (Percent of control) MST2 [24]: 98 POC; POC (Percent of control) DYRK1a [25]: 96 POC; POC (Percent of control) PKGa2 [26]: 93 POC; POC (Percent of control) p38 alpha [27]: 101 POC; POC (Percent of control) CAMK4 [28]: 95 POC; POC (Percent of control) PRAK [29]: 106 POC; POC (Percent of control) AMPK [30]: 92 POC; POC (Percent of control) CAMK2 [30]: 118 POC; POC (Percent of control) PKC beta2 [30]: 96 POC; POC (Percent of control) TAK1 [30]: 99 POC; Mutant B-raf HTRF Assay POC Mean n = 2 [31]: 118% of Control (POC)
3 | COc1ccc(Nc2ncc(CN3CCN(C(C)=O)CC3)cc2-c2nc(C)nc3[nH]cnc23)cn1 [Example 89, 1-(4-((6-(6-methoxypyridin-3-ylamino)-5-(2-methyl-9H-purin-6-yl)pyridin-3-yl)methyl)piperazin-1-yl)ethanone] | 92 POC | 108 POC | 101 POC | 91 POC | 95 POC | 107 POC | 99 POC | 101 POC | 99 POC | 96 POC | 98 POC | 97 POC | 99 POC | 89 POC | 100 POC | 106 POC | 92 POC | 95 POC | 80 POC | 98 POC | POC (Percent of control) MAPKAPK2 [21]: 100 POC; POC (Percent of control) BTK [22]: 102 POC; POC (Percent of control) PAK2 [23]: 97 POC; POC (Percent of control) MST2 [24]: 98 POC; POC (Percent of control) DYRK1a [25]: 88 POC; POC (Percent of control) PKGa2 [26]: 87 POC; POC (Percent of control) p38 alpha [27]: 100 POC; POC (Percent of control) CAMK4 [28]: 109 POC; POC (Percent of control) PRAK [29]: 99 POC; POC (Percent of control) AMPK [30]: 91 POC; POC (Percent of control) CAMK2 [30]: 108 POC; POC (Percent of control) PKC beta2 [30]: 94 POC; POC (Percent of control) TAK1 [30]: 93 POC; Mutant B-raf HTRF Assay POC Mean n = 2 [31]: 102% of Control (POC)

From US8772480B2, “Inhibitors of PI3 kinase and/or mTOR” (priority 2009, dated 2014)
